Measured values reported in patent publication US11324717B2, “Microbial carotenoids affecting gut microbial composition” (Microbial Research Management Health NV, priority 2016, dated 2022).

Columns and labels:
[1] = system: gut microbiota; assay: Gut microbiome composition (fecal DGGE cluster analysis) in rats on high-fat diet; type: in vivo, Sprague-Dawley rats; conditions: daily oral gavage in peanut oil for 8 weeks, carotenoids 10-50 pg/d, lutein 25 μg/d, vs HF controls
Description: To evaluate the effect of carotenoids from PD01 on gut microbiome composition in vivo, male Sprague-Dawley rats of 90 days of age were daily dosed for 8 weeks with carotenoids from PD01, either as carotenoid extract or as carotenoids contained in spores or vegetative cells. The experiment consisted of administration of a high-fat (HF) diet to the animals, which mimics a standardized western diet and is associated with the development of metabolic syndrome within 8 weeks of administration. In addition to a HF control group, separate groups of animals received the HF diet in combination with one of the carotenoid formulations from PD01. To do this, the carotenoid formulations were suspended in peanut oil and given by oral gavage to the rats in addition to the HF diet. The corresponding daily dose of carotenoids was in the range of […]. A control group receiving a standard low-fat (LF) diet was included to allow assessment of the specific effect of the HF diet on the gut microbiome composition. Additionally, one extra HF group was included, receiving the plant-derived carotenoid lutein, in the same amount as the bacterial carotenoids (i.e. 25 μg/d). This allows comparison of the effect of bacterial vs. plant-derived carotenoids on the gut microbiome composition. To monitor the effects of the different formulations on the gut microbiota, DGGE profiles were prepared. […]

[2] = system: Caco-2/THP1XB co-cultures; assay: Gut barrier function: TEER in Caco-2/THP1XB co-cultures (transwell); type: cell-based; conditions: 18 h after treatment of Caco-2/THP1XB co-cultures
Description: The effect on the host of the carotenoids from PD01 (derived from either vegetative cells or spores) on gut barrier function, was studied in Caco-2/THP1XB co-cultures, according to methods described in Possemiers et al. (2013, J Agric Food Chem 61). Endpoint of the measurement was a change from control in the transepithelial electrical resistance (TEER) in a transwell setup.

Row | SMILES | gut microbiome composition (DGGE cluster analysis of fecal samples) [1] | transepithelial electrical resistance (TEER), change from control [2]
1 | CC1=C[C@H](O)CC(C)(C)[C@H]1/C=C/C(C)=C/C=C/C(C)=C/C=C/C=C(C)/C=C/C=C(C)/C=C/C1=C(C)C[C@@H](O)CC1(C)C [lutein] | clustered together with those of the HF controls | –
2 | Cc1c(C)c2c(c(C)c1O)CC[C@@](C)(CCC[C@H](C)CCC[C@H](C)CCCC(C)C)O2 [α-tocopherol] | – | did not induce protection
